# According to US20080064665A1, “Combination approaches to cancer treatment” (priority 2006, published 2008):
# Values joined by “and” are separate entries in the source; they are usually repeats but may differ in a detail not shown here. Equal values may be shown once.
# How the values were obtained:
# [1] = tested on: SiHa cervical cancer xenografts; experiment: Excision assay of SiHa xenografts (clonogenic log cell kill); format: in vivo, CD-1 Fox^nu mice; settings: SN 28343 91.2 mg/kg, SN 29303 375 mg/kg
# Experimental: As for Part 1 except for except where noted below.
# Excess compound was discarded.
# Date, body weights (used to adjust injection volume), tumor diameter, unique identifier (tail markings), body weight, and volume to be injected were recorded. Animals were dosed with the test articles i.p. following a defined treatment schedule:
# 18 hours after treatment the mice were culled by cervical dislocation and tumors removed by dissection, in a sterile laminar flow hood. Whole tumor weights were recorded. Tumors were minced using scissors or scalpels until a fine minceate was obtained, and up to 500 mg of minceate was transferred into a pre-tiered Falcon®14 ml test tube containing a sterile magnetic spin bar and re-weighed.
# Samples were then incubated in 37° C. water bath for 30 min over a magnetic stirrer.
# After incubation any undissociated material was allowed to settle for 1 minute. […] Pellets were re-suspended in 10 ml of medium. Cells/ml was determined using an electronic particle counter (Beckman Coulter Electronics, Z2 model). Samples were then diluted to 1×10^5cells/ml and 6-fold serial dilutions made down to 4.6×10^2cells/ml.
# 1 ml of each sample was plated in triplicate for each dilution into appropriately labelled Falcon® P-60 tissue culture dishes containing 4 ml of αMEM+10% FCS+PS.
# Where possible, all plates were counted; those colonies counted=larger than 50 cells, confirmed with the light microscope. TMTC was recorded for those plates where there were too many colonies to count.
# The criteria for selecting the best dilution to use for calculating plating efficiency (PE):
# Higher dilution count>100 colonies (average); lower dilution 10-100 colonies, use PE from the dilution with fewer colonies.
# Higher dilution count >100; lower dilution count <20, use average data from both.
# Higher dilution count <100; lower dilution count <20, use PE from the dilution with more colonies.
# Higher dilution count <100; lower dilution count >20, use average data from both. Note: For the 10^5 dilution, take as the “lower limit” colony count a total count of 30, (sum of all replicates).
# [2] = tested on: A2780 human ovarian cancer xenografts; experiment: Growth delay and survival of A2780 xenografts, PR-104 and docetaxel; format: in vivo, CD-1 nude mice; settings: A2780 xenograft
# Experimental: (§1) End-point: After treatment, tumor size and body weights were measured regularly and mice were culled either when the average diameter of the tumor reached 15 mm (end-point), the tumor ulcerated or when the body weight change reached −15%. Experiment was ended and all remaining mice culled 120 days after treatment.
# (§2) Analysis: End-points will be expressed as TTE50, Median RTV^4 and plotted in Kaplan-Meier Plots and analysed by Log Rank P statistical test.
# [3] = tested on: 22RV1 androgen-resistant human prostate cancer xenograft; experiment: Growth delay and survival of 22RV1 xenograft, PR-104 and docetaxel; format: in vivo, CD-1 nude mice
# Experimental: as §1, §2
# [4] = PR-104 652 mg/kg, docetaxel 73 mg/kg, q2w×2
# [5] = 22RV1 xenograft, PR-104 652 mg/kg, docetaxel 73 mg/kg, q2w×2
compound,measurement,setting,value
"CC(=O)O[C@@]12CO[C@@H]1C[C@H](O)[C@@]1(C)C(=O)[C@H](O)C3=C(C)[C@@H](OC(=O)[C@H](O)[C@@H](NC(=O)OC(C)(C)C)c4ccccc4)C[C@@](O)([C@@H](OC(=O)c4ccccc4)[C@H]21)C3(C)C [Docetaxel, (2R,3S)-N-carboxy-3-phenylisoserine, N-tert-butyl ester, 13-ester with 5β-20-epoxy-1,2α,4,7β,10β,13α-hexahydroxytax-11-en-9-one 4-acetate 2-benzoate, trihydrate, reference compound]",cell kill versus controls in excision assay (in words),"[1]; SiHa human cervical tumor xenograft, docetaxel 65 mg/kg i.p.",inactive
same,Log Cell Kill versus controls (Mean ± SEM),"[1]; SiHa tumors excised 18 hours after treatment, docetaxel 65 mg/kg, i.p.",0.451
same,Weight Loss Nadir (%),"[2]; CD-1 nude mice, PR-104 652 mg/kg, docetaxel 73 mg/kg, i.p., q2w×2, trihydrate",−8.7±1.5%
same,LTC (long term control),[2]; 120 day experiment,0
same,Median RTV^4,[2]; [4],12 days
same,TTE50,[2]; [4],14 days
same,TGD (relative gain in median RTV^4 versus control),"[2]; PR-104 652 mg/kg, docetaxel 73 mg/kg, q2w×2, trihydrate",167% and 166.7%
same,improvement in median tumor growth delay,[2]; versus control,7.5 days
same,Gain TTE50 (improvement in median survival),[2]; versus control (6 days),8 days
same,activity against 22RV1 xenograft (in words),[3]; 22RV1 prostate xenograft model,moderately active
same,Weight Loss Nadir (%),"[3]; 22RV1 xenograft, CD-1 nude mice, PR-104 652 mg/kg, docetaxel 73 mg/kg, i.p., q2w×2, trihydrate",−3.5±0.8%
same,LTC (long term control),"[3]; 22RV1 xenograft, 120 day experiment",0
same,Median RTV^4,[3]; [5],20 days
same,TGD (relative gain in median RTV^4 versus control; TGI in text),[3]; [5],122%
same,TTE50,[3]; [5],24 days
same,median tumor growth delay,"[3]; 22RV1 xenograft, versus control",11 days
same,Gain TTE50 (improvement in median survival),"[3]; 22RV1 xenograft, versus control (9.5 days)",14.5 days
